pEC50: −log10 of the molar value.
test system: HCV 1b_Huh-Luc/Neo-ET cell line persistently expressing a bicistronic genotype 1b replicon in Huh 7 cells; experiment: HCV replicon assay (luciferase readout, 72 h); format: cell-based, HCV genotype 1b; conditions: Hepatitis C virus, Huh-7, 72 h, read-out: Inhibition of HCV genotype 1b
Method in brief: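 EC50 values come from a four-parameter fit of luciferase signal as % of untreated control, repeated across several determinations. The signal is from the HCV 1b_Huh-Luc/Neo-ET replicon line, dosed in triplicate one day post-plating and incubated 72 h before Bright-Glo readout.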

Question: How did the pEC50 turn out when `COC(=O)N[C@@H](C(=O)N[C@H](c1ncc(-c2ccc(C#Cc3ccc(-c4cnc([C@@H]5CCCN5C(=O)[C@H](NC(=O)OC)c5ccccc5)[nH]4)cc3)cc2)[nH]1)C(C)C)c1ccccc1` [Compound 282] was run?
Answer: Its pEC50 is > 9.00.

Question: With `COC(=O)N[C@@H](C(=O)N1CCC[C@H]1c1ncc(-c2ccc(C#Cc3ccc(-c4cnc([C@@H]5CCCN5C(=O)c5cccnc5)[nH]4)cc3)cc2)[nH]1)c1ccccc1` [Compound 183] as the compound, how does the pEC50 read?
Answer: The pEC50 was > 9.00.

Question: How did the pEC50 turn out when `COC(=O)N[C@@H](C(=O)N1CCC[C@H]1c1ncc(C#Cc2ccc(-c3ccc(-c4cnc([C@@H]5CCCN5C(=O)[C@H](NC(=O)C5CC5)c5ccccc5)[nH]4)cc3)cc2)[nH]1)c1ccccc1` [Compound 754] was run?
Answer: The pEC50 was > 9.00.

Question: With `C[C@H]1OC(=O)N[C@@H]1C(=O)N1CCC[C@H]1c1ncc(-c2ccc(C#Cc3ccc(-c4cnc([C@@H]5CCCN5C(=O)[C@H]5NC(=O)O[C@@H]5C)[nH]4)cc3)cc2)[nH]1` [Compound 979] as the compound, how does the pEC50 read?
Answer: The pEC50 was 6.00 to 8.00.

Question: `CC(C)(C)OC(=O)N[C@@H](C(=O)N1CCC[C@H]1c1cc(-c2ccc(C#Cc3ccc(-c4cnc([C@@H]5CCCN5C(=O)[C@H](NC(=O)OC(C)(C)C)c5ccccc5)[nH]4)cc3)cc2)n[nH]1)c1ccccc1` [Compound 210] was tested. Which pEC50 did it give?
Answer: Its pEC50 is > 9.00.

Question: With `C[C@@H]1OC(=O)N[C@H]1C(=O)N1CCC[C@H]1c1ncc(-c2ccc(C#Cc3ccc(-c4cnc([C@@H]5CCCN5C(=O)[C@@H]5NC(=O)O[C@H]5C)[nH]4)cc3)cc2)[nH]1` [Compound 1000] as the compound, how does the pEC50 read?
Answer: Its pEC50 is 6.00 to 8.00.

Question: `COC(=O)N[C@@H](C(=O)N1CCC[C@H]1c1ncc(-c2ccc(C#Cc3ccc(-c4cnc([C@@H]5CCCN5C(=O)[C@H](NC(=O)N5CCOCC5)c5ccccc5)[nH]4)cc3)cc2)[nH]1)c1ccccc1` [Compound 224] was tested. Which pEC50 did it give?
Answer: Its pEC50 is > 9.00.

Question: `C[C@@H](NC(=O)[C@@H]1CCCN1C(=O)[C@H](NC(=O)OC(C)(C)C)c1ccccc1)c1ccc(C#Cc2ccc(-c3cnc([C@@H]4CCCN4C(=O)[C@H](NC(=O)OC(C)(C)C)c4ccccc4)[nH]3)cc2)cc1` [Compound 167] was tested. Which pEC50 did it give?
Answer: The pEC50 was 8.00 to 9.00.

Question: With `COC(=O)N[C@@H](C(=O)N1CCC[C@H]1c1ncc(-c2ccc(C#Cc3ccc(-c4cnc([C@@H]5CCCN5C(=O)[C@@H](c5ccccc5)N5CCOCC5)[nH]4)cc3)cc2)[nH]1)c1ccccc1` [Compound 185] as the compound, how does the pEC50 read?
Answer: The pEC50 was > 9.00.

Question: How did the pEC50 turn out when `COC(=O)N[C@H](C(=O)N1CCC[C@H]1c1nc2ccc3cc(C#Cc4ccc(-c5cnc([C@@H]6CCCN6C(=O)[C@H](NC(=O)OC)c6ccccc6)[nH]5)cc4F)ccc3c2[nH]1)C(C)C` [Compound 1100] was run?
Answer: Its pEC50 is > 9.00.

Question: With `CC(C)(C)OC(=O)NC(C)(C)C(=O)N1CCC[C@H]1c1ncc(C#Cc2ccc(-c3cnc([C@@H]4CCCN4C(=O)C(C)(C)NC(=O)OC(C)(C)C)[nH]3)cc2)[nH]1` [Compound 106] as the compound, how does the pEC50 read?
Answer: The pEC50 was < 6.00.

Question: `O=C(N[C@@H](C(=O)N1CCC[C@H]1c1ncc(C#Cc2ccc(-c3cnc([C@@H]4CCCN4C(=O)[C@H](NC(=O)C4CC4)c4ccccc4)[nH]3)cc2)[nH]1)c1ccccc1)C1CC1` [Compound 100] was tested. Which pEC50 did it give?
Answer: Its pEC50 is > 9.00.

Question: `C[C@@H](NC(=O)[C@@H]1CCCN1C(=O)[C@H](NC(=O)C1CC1)c1ccccc1)c1ccc(C#Cc2ccc(-c3cnc([C@@H]4CCCN4C(=O)[C@H](NC(=O)C4CC4)c4ccccc4)[nH]3)cc2)cc1` [Compound 168] was tested. Which pEC50 did it give?
Answer: Its pEC50 is > 9.00.

Question: `CC(C)[C@@H](NC(=O)OC(C)(C)C)C(=O)N1CCC[C@H]1c1ncc(-c2ccc(C#Cc3ccc(-c4cnc([C@@H]5CCCN5C(=O)[C@H](NC(=O)OC(C)(C)C)C(C)C)[nH]4)cc3)cc2)[nH]1` [Compound 152] was tested. Which pEC50 did it give?
Answer: The pEC50 was 6.00 to 8.00.

Question: With `COC(=O)N[C@@H](CC(C)C)C(=O)N1CCC[C@H]1c1ncc(-c2ccc(C#Cc3ccc(-c4cnc([C@@H]5CCCN5C(=O)[C@H](CC(C)C)NC(=O)OC)[nH]4)cc3)cc2)[nH]1` [Compound 961] as the compound, how does the pEC50 read?
Answer: The pEC50 was > 9.00.

Question: With `COC(=O)NC(C)(C)C(=O)N1CCC[C@H]1c1ncc(-c2ccc(C#Cc3ccc4nc([C@@H]5CCCN5C(=O)C(C)(C)NC(=O)OC)[nH]c4c3)cc2)[nH]1` [Compound 1050] as the compound, how does the pEC50 read?
Answer: Its pEC50 is 6.00 to 8.00.

Question: How did the pEC50 turn out when `CC(C)[C@H](NC(=O)OC(C)(C)C)C(=O)N1CCC[C@H]1c1ncc(-c2ccc(C#Cc3ccc(-c4cnc([C@@H]5CCCN5C(=O)[C@@H](NC(=O)OC(C)(C)C)C(C)C)[nH]4)cc3)cc2)[nH]1` [Compound 165] was run?
Answer: The pEC50 was 6.00 to 8.00.

Question: With `COC(=O)N[C@@H](C(=O)N1CCC[C@H]1c1ncc(C#Cc2ccc(C#Cc3cnc([C@@H]4CCCN4C(=O)[C@@H](c4ccccc4)N(C)C)[nH]3)cc2)[nH]1)c1ccccc1` [Compound 314] as the compound, how does the pEC50 read?
Answer: Its pEC50 is > 9.00.

same assay, conditions: Hepatitis C virus, Huh-7, read-out: Inhibition of HCV genotype 1b

Question: `COC(=O)N[C@H](C(=O)N1CCC[C@H]1c1ncc(-c2ccc(C#Cc3ccc(-c4cnc([C@@H]5CN(C(=O)OC)CCN5C(=O)[C@@H](NC(=O)OC)C(C)C)[nH]4)cc3)cc2)[nH]1)C(C)C` [Compound 1204] was tested. Which pEC50 did it give?
Answer: The pEC50 was > 9.00.

Question: How did the pEC50 turn out when `COC(=O)N[C@H](C(=O)N1CCC[C@H]1c1ncc(-c2ccc(C#Cc3ccc4nc([C@@H]5CCCN5C(=O)[C@@H](NC(=O)OC)C5CCCC5)[nH]c4n3)cc2)[nH]1)C1CCCC1` [Compound 1250] was run?
Answer: Its pEC50 is > 9.00.

Question: `COC(=O)N[C@H](C(=O)N1CCC[C@H]1c1ncc(-c2ccc(C#Cc3ccc(-c4cnc([C@@H]5CCCN5C(=O)[C@@H](NC(=O)OC)C(C)C)[nH]4)cc3C(=O)N3CCCC3)cc2)[nH]1)C(C)C` [Compound 1208] was tested. Which pEC50 did it give?
Answer: The pEC50 was > 9.00.

Question: How did the pEC50 turn out when `COC(=O)N[C@H](C(=O)N1CCC[C@H]1c1ncc(-c2ccc3cc(C#Cc4[nH]c([C@@H]5CCCN5C(=O)[C@@H](NC(=O)OC)C(C)C)nc4C#N)ccc3c2)[nH]1)C(C)C` [Compound 1257] was run?
Answer: Its pEC50 is > 9.00.

Question: With `COC(=O)N[C@H](C(=O)N1CCN(C(=O)OC)C[C@H]1c1ncc(-c2ccc(C#Cc3ccc4nc([C@@H]5CCCN5C(=O)[C@@H](NC(=O)OC)C5CCOCC5)[nH]c4c3)cc2)[nH]1)C(C)C` [Compound 1229] as the compound, how does the pEC50 read?
Answer: Its pEC50 is > 9.00.

Question: With `COC(=O)N[C@H](C(=O)N1CCC[C@H]1c1nc2c([nH]1)-c1ccc(C#Cc3ccc4nc([C@@H]5CCCN5C(=O)[C@@H](NC(=O)OC)C5CCOCC5)[nH]c4c3)cc1CCC2)C(C)C` [Compound 1280] as the compound, how does the pEC50 read?
Answer: Its pEC50 is > 9.00.

Question: With `COC(=O)N[C@H](C(=O)N1CCC[C@H]1c1ncc(-c2ccc(C#Cc3ccc4nc([C@@H]5CCCN5C(=O)[C@@H](NC(=O)OC)C(C)C)[nH]c4n3)cc2)[nH]1)C(C)C` [Compound 1249] as the compound, how does the pEC50 read?
Answer: Its pEC50 is > 9.00.

Question: How did the pEC50 turn out when `COC(=O)N[C@H](C(=O)N1CCC[C@H]1c1ncc(-c2ccc3cc(C#Cc4[nH]c([C@@H]5CCCN5C(=O)[C@@H](NC(=O)OC)[C@@H](C)OC)nc4C(F)(F)F)ccc3c2)[nH]1)[C@@H](C)OC` [Compound 1255] was run?
Answer: The pEC50 was > 9.00.

Question: `COC(=O)N[C@H](C(=O)N1CCC[C@H]1c1ncc(-c2ccc(C#Cc3ccc4nc([C@@H]5CCCN5C(=O)[C@@H](NC(=O)OC)[C@@H](C)OC)[nH]c4n3)cc2)[nH]1)[C@@H](C)OC` [Compound 1252] was tested. Which pEC50 did it give?
Answer: Its pEC50 is > 9.00.

Question: How did the pEC50 turn out when `COC(=O)N[C@H](C(=O)N1CCC[C@H]1c1nc(C)c(C#Cc2ccc3cc(-c4cnc([C@@H]5CCCN5C(=O)[C@@H](NC(=O)OC)[C@@H](C)OC)[nH]4)ccc3c2)[nH]1)C1CCCC1` [Compound 1266] was run?
Answer: The pEC50 was > 9.00.

Question: `CC[C@H](NC(=O)OC)C(=O)N1CCC[C@H]1c1ncc(-c2ccc(C#Cc3ccc4nc([C@@H]5CCCN5C(=O)[C@@H](NC(=O)OC)[C@@H](C)OC)[nH]c4c3)cc2)[nH]1` [Compound 1247] was tested. Which pEC50 did it give?
Answer: The pEC50 was > 9.00.

Question: With `COC(=O)N[C@H](C(=O)N1CCC[C@H]1c1ncc(-c2ccc(C#Cc3ccc(-c4cnc([C@@H]5CCCN5C(=O)[C@H](NC(=O)OC)c5ccccc5OC)[nH]4)cc3)cc2)[nH]1)[C@@H](C)OC` [Compound 1211] as the compound, how does the pEC50 read?
Answer: Its pEC50 is > 9.00.

From patent US20130296311A1, “INHIBITORS OF HCV NS5A” (PRESIDIO PHARMACEUTICALS, INC., priority 2010, published 2013)
